Reference: patent US8552052B2, “Use of diindolylmethane-related indoles for the treatment and prevention of respiratory syncytial virus associated conditions” (BioResponse, L.L.C., priority 2004, dated 2013)
Entries after “also recorded” stand apart in the source; their conditions may differ.

Legend:
Caspase 3 = experiment: Ac-DEVD-AFC caspase-3 protease assay of lung homogenate of RSV infected BALB/c mice; format: in vivo; conditions: oral and subcutaneous DIM, FIG. 5A
Protocol: (§1) The Following Experimental BALB/c Groups and Treatment Protocol Using DIM were Studied: • 1. RSV infected positive control group, infected with RSV and injected subcutaneously (SC) once daily with DMSO/Phosphate Buffered Saline (PBS) vehicle. • 2. RSV infected, Low dose Parenteral DIM group (15 mg/kg/day), injected SC once daily with DIM suspension • 3. RSV infected, High dose DIM Group (150 mg/kg/day), injected SC once daily with DIM suspension • 4. RSV infected, orally treated DIM group (250 mg/kg/day from absorption enhanced DIM [Example 6.1]), added to powdered feed • 5. Uninfected negative control group, nasally administered vehicle only, and injected subcutaneously (SC) once daily with DMSO/PBS vehicle
Mouse treatment, infection and harvest. Intranasal application of RSV in BALB/c mice followed an established procedure (Bitko et al., 2005, Nat Med. 11(1):50-5) and causes predictable pulmonary disease and inflammation. For RSV infection, RSV stock was diluted such that each mouse was given 10^7 pfu (plaque forming unit) of the virus intranasally. […]

[1] = lung tissue; cited from earlier work
rainbow trout = conditions: cited from earlier work
[2] = system: estrogen-dependent and independent breast cancer cells; conditions: isolated DIM in cell culture; cited from earlier work
[3] = system: Mitogen Activated Protein Kinase (MAPK) cell signaling pathway; conditions: cell culture; cited from earlier work
bRSV = experiment: Experimental bovine Respiratory Syncytial Virus (bRSV) infection in calves; format: in vivo, Male Jersey calves; conditions: vs vehicle only treated positive control animals
[4] = system: chemically induced forms of breast cancer; conditions: orally administered, animals; cited from earlier work
[5] = system: prostate cancer cell lines; conditions: cited from earlier work
cysteinyl leukotrienes = experiment: Cysteinyl leukotrienes ELISA in bronchoalveolar lavage fluid (BALF) of RSV infected BALB/c mice; format: in vivo; conditions: oral, SC low dose and SC high dose DIM; 6 and 10 days pi; vs RSV-infected, untreated mice; FIG. 7
Protocol: as §1
Mouse treatment, infection and harvest. […]
To determine viral titer, the lung was homogenized in DMEM supplemented with 2% FBS (2 ml DMEM per 100 mg tissue) in cold. […] Multiple, 4 μm thick sections were stained with haematoxylin & eosin (H&E) and scored for cellular inflammation under light microscopy by two independent researchers. Inflammatory infiltrates were scored by enumerating the layers of inflammatory cells surrounding the vessels and bronchioles. […] A total of about 20 spaces per lung were counted for each animal. […] The concentration of cysteinyl leukotrienes conjugates in the BALF was determined by an ELISA kit following the manufacturer's protocol (R&D Systems, Minneapolis, Minn.). […]

c1ccc2c(Cc3c[nH]c4ccccc34)c[nH]c2c1 [DIM, 3,3′-diindolylmethane]
apoptosis in mouse lung homogenate: activated Caspase 3 (Caspase 3): increased apoptosis in lung tissue homogenate; also recorded: increased levels of apoptosis-specific, activated Caspase 3 | tissue distribution [1]: concentrated in lung tissue | estrogenic activity (rainbow trout): estrogenic | apoptosis effects [2]: apoptosis promoting effects | MAPK cell signaling pathway activation [3]: activate the Mitogen Activated Protein Kinase (MAPK) cell signaling pathway | evidence of active bRSV infection (bRSV): less evidence of active bRSV infection | tumor growth [4]: inhibits the growth of certain chemically induced forms of breast cancer | anti-androgen activity [5]: anti-androgen activity similar to non-indole antiandrogen drugs | leukotrienes in broncho-alveolar lung fluid (BALF) (cysteinyl leukotrienes): significant reduction in leukotriene levels; also recorded: Reduction in pulmonary leukotriene levels; also recorded: significantly lower levels of lung inflammation associated leukotrienes
